According to patent publication US12398120B2, “Substituted hydantoinamides as ADAMTS7 antagonists” (BAYER AKTIENGESELLSCHAFT, priority 2019, dated 2025):

Target: ADAMTS4 (Homo sapiens (Human), UniProt O75173)
Test: Selectivity assay for ADAMTS-7 modulators: ADAMTS4 (FRET substrate)
Type: biochemical
Settings: ADAMTS4 (R&D 4307-AD) 50 nM, substrate Dabcyl-EEVKAKVQPY-Glu(Edans)-NH2 1 μM, 120 min, 32° C.
Experimental: 1 μl test compound solution (dissolved in DMSO, at the corresponding concentration) or pure DMSO as a control was added per well. The enzymatic reaction was initiated by addition of 25 μl of the respective concentration of the respective FRET substrate (see table 2 below) in reaction buffer.
The increase of fluorescence intensity was measured in appropriate fluorescence plate reader (e.g. TECAN Ultra) using the respective wavelengths for excitation and emission. IC50 values were calculated from percentage of inhibition of enzyme activity as a function of test compound concentration.

Chain of ADAMTS4 (O75173 213-685): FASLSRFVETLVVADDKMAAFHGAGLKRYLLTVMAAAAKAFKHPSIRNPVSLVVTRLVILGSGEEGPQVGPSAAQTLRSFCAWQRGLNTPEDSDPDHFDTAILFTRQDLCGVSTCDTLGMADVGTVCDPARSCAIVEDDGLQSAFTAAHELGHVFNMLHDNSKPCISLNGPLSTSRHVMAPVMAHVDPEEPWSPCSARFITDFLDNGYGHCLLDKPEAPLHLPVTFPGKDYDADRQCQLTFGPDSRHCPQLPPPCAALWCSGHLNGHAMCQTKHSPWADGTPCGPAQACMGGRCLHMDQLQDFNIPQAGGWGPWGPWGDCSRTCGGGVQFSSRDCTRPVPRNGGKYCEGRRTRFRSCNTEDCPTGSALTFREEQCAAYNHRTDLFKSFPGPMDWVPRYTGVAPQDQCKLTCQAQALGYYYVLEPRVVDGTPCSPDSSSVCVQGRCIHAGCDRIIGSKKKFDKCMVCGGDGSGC

Row | SMILES | IC50
1 | Cc1ccc(C(=O)NCC2(C(C)C)NC(=O)NC2=O)c(-c2ccc(C(F)(F)F)cc2)c1 (racemic) [Example 202, Rac-N-[(4-Isopropyl-2,5-Dioxoimidazolidin-4-Yl)Methyl]-5-Methyl-4′-(Trifluoromethyl)[Biphenyl]-2-Carboxamide] | 38 µM
2 | Cc1ccc(-c2ccccc2C(=O)NCC2(C(C)C)NC(=O)NC2=O)cc1 (racemic) [Example 204, Rac-N-[(4-Isopropyl-2,5-Dioxoimidazolidin-4-Yl)Methyl]-4′-Methyl[Biphenyl]-2-Carboxamide] | 22 µM
3 | CC(C)C1(CNC(=O)c2ccc(F)cc2-c2ccc(C(F)(F)F)cc2)NC(=O)NC1=O (racemic) [Example 206, Rac-5-Fluoro-N-[(4-Isopropyl-2,5-Dioxoimidazolidin-4-Yl)Methyl]-4′-(Trifluoromethyl)[Biphenyl]-2-Carboxamide] | > 50 µM
4 | CC(C)C1(CNC(=O)c2ccccc2-c2ccc(C(F)(F)F)cc2)NC(=O)NC1=O (racemic) [Example 208, Rac-N-[(4-Isopropyl-2,5-Dioxoimidazolidin-4-Yl)Methyl]-4′-(Trifluoromethyl)[Biphenyl]-2-Carboxamide] | > 50 µM
5 | O=C1NC(=O)C(CNC(=O)c2ccc(F)cc2-c2ccc(C(F)(F)F)cc2)(c2ncccc2C(F)(F)F)N1 (racemic) [Example 240, Rac-N-({2,5-Dioxo-4-[3-(Trifluoromethyl)Pyridin-2-Yl]Imidazolidin-4-Yl}Methyl)-5-Fluoro-4′-(Trifluoromethyl)[Biphenyl]-2-Carboxamide] | > 50 µM
6 | O=C1NC(=O)C(CNC(=O)c2ccc(F)cc2-c2ccc(Cl)cc2)(c2ncccc2C(F)(F)F)N1 (racemic) [Example 241, Rac-4′-Chloro-N-({2,5-Dioxo-4-[3-(Trifluoromethyl)Pyridin-2-Yl]Imidazolidin-4-Yl}Methyl)-5-Fluoro[Biphenyl]-2-Carboxamide] | 41 µM
7 | O=C1NC(=O)C(CNC(=O)c2ccccc2-c2ccc(Cl)cc2)(c2ncccc2C(F)(F)F)N1 (racemic) [Example 242, Rac-4′-Chloro-N-({2,5-Dioxo-4-[3-(Trifluoromethyl)Pyridin-2-Yl]Imidazolidin-4-Yl}Methyl)[Biphenyl]-2-Carboxamide] | 29 µM
8 | O=C1NC(=O)C(CNC(=O)c2ccccc2-c2ccc(C(F)(F)F)cc2)(c2ncccc2C(F)(F)F)N1 (racemic) [Example 243, Rac-N-({2,5-Dioxo-4-[3-(Trifluoromethyl)Pyridin-2-Yl]Imidazolidin-4-Yl}Methyl)-4′-(Trifluoromethyl)[Biphenyl]-2-Carboxamide] | 45 µM
9 | O=C1NC(=O)C(CNC(=O)c2ccc(F)cc2-c2ccc(Cl)cc2)(C2CC(F)(F)C2)N1 (racemic) [Example 245, Rac-4′-Chloro-N-{[4-(3,3-Difluorocyclobutyl)-2,5-Dioxoimidazoidin-4-Yl]Methyl}-5-Fluoro[Biphenyl]-2-Carboxamide] | > 50 µM
10 | O=C1NC(=O)C(CNC(=O)c2ccccc2-c2ccc(Cl)cc2)(C2CC(F)(F)C2)N1 (racemic) [Example 246, Rac-4′-Chloro-N-{[4-(3,3-Difluorocyclobutyl)-2,5-Dioxoimidazolidin-4-Yl]Methyl}[Biphenyl]-2-Carboxamide] | > 50 µM
11 | O=C1NC(=O)C(CNC(=O)c2ccc(F)cc2-c2ccc(Cl)cc2)(C2(F)CC2)N1 (racemic) [Example 249, Rac-4′-Chloro-5-Fluoro-N-{[4-(1-Fluorocyclopropyl)-2,5-Dioxoimidazolidin-4-Yl]Methyl}[Biphenyl]-2-Carboxamide] | 35 µM
12 | O=C1NC(=O)C(CNC(=O)c2ccccc2-c2ccc(Cl)cc2)(C2(F)CC2)N1 (racemic) [Example 250, Rac-4′-Chloro-N-{[4-(1-Fluorocyclopropyl)-2,5-Dioxoimidazolidin-4-Yl]Methyl}[Biphenyl]-2-Carboxamide] | 31 µM
13 | O=C1NC(=O)C(CNC(=O)c2ccc(F)cc2-c2ccc(C(F)(F)F)cc2)(C2(F)CC2)N1 (racemic) [Example 252, Rac-5-Fluoro-N-{[4-(1-Fluorocyclopropyl)-2,5-Dioxoimidazolidin-4-Yl]Methyl}-4′-(Trifluoromethyl)[Biphenyl]-2-Carboxamide] | 41 µM
14 | O=C1NC(=O)C(CNC(=O)c2ccccc2-c2ccc(C(F)(F)F)cc2)(C2(F)CC2)N1 (racemic) [Example 254, Rac-N-{[4-(1-Fluorocyclopropyl)-2,5-Dioxoimidazolidin-4-Yl]Methyl}-4′-(Trifluoromethyl)[Biphenyl]-2-Carboxamide] | 26 µM
15 | O=C1NC(=O)C(CNC(=O)c2ccc(F)c(F)c2-c2ccc(C(F)(F)F)cc2)(C2(F)CC2)N1 (racemic) [Example 256, Rac-5,6-Difluoro-N-{[4-(1-Fluorocyclopropyl)-2,5-Dioxoimidazolidin-4-Yl]Methyl}-4′-(Trifluoromethyl)[Biphenyl]-2-Carboxamide] | 28 µM
16 | O=C1NC(=O)C(CNC(=O)c2ccc(F)cc2-c2ccc(Cl)cc2)(c2ccnn2C(F)F)N1 (racemic) [Example 257, Rac-4′-Chloro-N-({4-[1-(Difluoromethyl)-1H-Pyrazol-5-Yl]-2,5-Dioxoimidazolidin-4-Yl}Methyl)-5-Fluoro[Biphenyl]-2-Carboxamide] | 11 µM
17 | O=C1NC(=O)C(CNC(=O)c2ccccc2-c2ccc(Cl)cc2)(c2ccnn2C(F)F)N1 (racemic) [Example 258, Rac-4′-Chloro-N-({4-[1-(Difluoromethyl)-1H-Pyrazol-5-Yl]-2,5-Dioxoimidazolidin-4-Yl}Methyl)[Biphenyl]-2-Carboxamide] | 12 µM
18 | O=C1NC(=O)C(CNC(=O)c2ccccc2-c2ccc(C(F)(F)F)cc2)(c2ccnn2C(F)F)N1 (racemic) [Example 260, Rac-N-({4-[1-(Difluoromethyl)-1H-Pyrazol-5-Yl]-2,5-Dioxoimidazolidin-4-Yl}Methyl)-4′-(Trifluoromethyl)[Biphenyl]-2-Carboxamide] | 17 µM
19 | O=C1NC(=O)C(CNC(=O)c2ccc(F)cc2-c2ccc(C(F)(F)F)cc2)(c2ccnn2C(F)F)N1 (racemic) [Example 262, Rac-N-({4-[1-(Difluoromethyl)-1H-Pyrazol-5-Yl]-2,5-Dioxoimidazolidin-4-Yl}Methyl)-5-Fluoro-4′-(Trifluoromethyl)[Biphenyl]-2-Carboxamide] | 19 µM
20 | O=C1NC(=O)C(CNC(=O)c2ccccc2-c2ccc(C(F)(F)F)cc2)(c2ncsc2C(F)(F)F)N1 (racemic) [Example 263, Rac-N-({2,5-Dioxo-4-[5-(Trifluoromethyl)-1,3-Thiazol-4-Yl]Imidazolidin-4-Yl}Methyl)-4′-(Trifluoromethyl)[Biphenyl]-2-Carboxamide] | 32 µM
21 | O=C1NC(=O)C(CNC(=O)c2cc(F)ccc2-c2ccc(C(F)(F)F)cc2)(c2ncsc2C(F)(F)F)N1 (racemic) [Example 265, Rac-N-({2,5-Dioxo-4-[5-(Trifluoromethyl)-1,3-Thiazol-4-Yl]Imidazolidin-4-Yl}Methyl)-4-Fluoro-4′-(Trifluoromethyl)[Biphenyl]-2-Carboxamide] | 9.1 µM
22 | O=C1NC(=O)C(CNC(=O)c2ccc(F)cc2-c2ccc(C(F)(F)F)cc2)(c2ncsc2C(F)(F)F)N1 (racemic) [Example 267, Rac-N-({2,5-Dioxo-4-[5-(Trifluoromethyl)-1,3-Thiazol-4-Yl]Imidazolidin-4-Yl}Methyl)-5-Fluoro-4′-(Trifluoromethyl)[Biphenyl]-2-Carboxamide] | 19 µM
23 | Cc1nc(C2(CNC(=O)c3ccc(F)cc3-c3ccc(C(F)(F)F)cc3)NC(=O)NC2=O)c(C)s1 (racemic) [Example 269, Rac-N-{[4-(2,5-Dimethyl-1,3-Thiazol-4-Yl)-2,5-Dioxoimidazolidin-4-Yl]Methyl}-5-Fluoro-4′-(Trifluoromethyl)[Biphenyl]-2-Carboxamide] | 9.5 µM
24 | O=C1NC(=O)C(CNC(=O)c2ccccc2-c2ccc(C(F)(F)F)cc2)(c2ncsc2C2CC2)N1 (racemic) [Example 270, Rac-N-{[4-(5-Cyclopropyl-1,3-Thiazol-4-Yl)-2,5-Dioxoimidazolidin-4-Yl]Methyl}-4′-(Trifluoromethyl)[Biphenyl]-2-Carboxamide] | 6.9 µM
25 | O=C1NC(=O)C(CNC(=O)c2ccc(F)cc2-c2ccc(C(F)(F)F)cc2)(c2ncsc2C2CC2)N1 (racemic) [Example 272, Rac-N-{[4-(5-Cyclopropyl-1,3-Thiazol-4-Yl)-2,5-Dioxoimidazolidin-4-Yl]Methyl}-5-Fluoro-4′-(Trifluoromethyl)[Biphenyl]-2-Carboxamide] | 7.8 µM
26 | Cc1cc(C2(CNC(=O)c3ccccc3-c3ccc(C(F)(F)F)cc3)NC(=O)NC2=O)n(C)n1 (racemic) [Example 275, Rac-N-{[4-(1,3-Dimethyl-1H-Pyrazol-5-Yl)-2,5-Dioxoimidazolidin-4-Yl]Methyl}-4′-(Trifluoromethyl)[Biphenyl]-2-Carboxamide] | 9.1 µM
27 | Cc1cc(C2(CNC(=O)c3ccc(F)cc3-c3ccc(C(F)(F)F)cc3)NC(=O)NC2=O)n(C)n1 (racemic) [Example 276, Rac-N-{[4-(1,3-Dimethyl-1H-Pyrazol-5-Yl)-2,5-Dioxoimidazolidin-4-Yl]Methyl}-5-Fluoro-4′-(Trifluoromethyl)[Biphenyl]-2-Carboxamide] | 15 µM
28 | O=C1NC(=O)C(CNC(=O)c2ccccc2-c2ccc(C(F)(F)F)cc2)(C2(Cl)CC2)N1 (racemic) [Example 279, Rac-N-{[4-(1-Chlorocyclopropyl)-2,5-Dioxoimidazolidin-4-Yl]Methyl}-4′-(Trifluoromethyl)[Biphenyl]-2-Carboxamide] | 13 µM
29 | O=C1NC(=O)C(CNC(=O)c2ccccc2-c2ccc(C(F)(F)F)nc2)(C2(Cl)CC2)N1 (racemic) [Example 281, Rac-N-{[4-(1-Chlorocyclopropyl)-2,5-Dioxoimidazolidin-4-Yl]Methyl}-2-[6-(Trifluoromethyl)Pyridin-3-Yl]Benzamide] | 26 µM
